The source of these data is PMC5424463, “A strategy based on nucleotide specificity leads to a subfamily-selective and cell-active inhibitor of N ^6-methyladenosine demethylase FTO” (Chemical Science, 2014).

Experiment [1] addresses T1, FTO (Homo sapiens, UniProt Q9C0B1).
T1 construct: The human full length FTO construct used in this study; made in house; host or cells: E. coli BL21 (DE3) Rosetta T1R
Put plainly: Differential scanning fluorimetry (DSF)-based binding assay, FTO. The note with it: 100 μM compound, 2 μM protein, 50 μM MnCl2, read-out: Tm shift (FTO). As to the method:
Superdex-200 column (GE Healthcare) pre-equilibrated with 20 mM HEPES, pH 7.5, 300 mM NaCl, 10% (v/v) glycerol, 0.5 mM TCEP. […]
Differential scanning fluorimetry (DSF)-based binding assay
DSF-based binding assay was performed using a MiniOpticon™ Real-Time PCR Detection System (Bio-Rad), monitoring protein unfolding using SYPRO orange (Invitrogen) according […]
to the reported method.[16] […]
and emission respectively. Reaction mixes contained 2 μM protein, 50 μM MnCl2, 100 μM […]
Reagents were prepared in 50mM
HEPES buffer, pH 7.5 except metals, which were dissolved as 100 mM stocks in 20 mM HCl, then further diluted in MilliQ water. Compounds tested were prepared in 100% DMSO and added such that the final concentration of DMSO was not more than 1% v/v of assay […]
increased linearly by 1°C min -1. The software provided was used to perform global minimum subtraction. The inflection point, representing Tm, was calculated by fitting the Boltzmann equation to the sigmoidal curves obtained; data were processed using GraphPad Prism 6.0™.
The Tm shift caused by the addition of small molecules/ fragments was determined by subtraction of the “reference” Tm (protein incubated with metal and 1% v/v DMSO) from the Tm obtained in the presence of the compound. […]

Experiment [2] concerns the target T1, FTO. Put plainly: HPLC-based inhibition assay for FTO, m3T substrate. The note with it: HPLC-based demethylase assay, m3T substrate; read-out: IC50 (FTO). It is filed as biochemical. As to the method: HPLC-based inhibition assays for FTO
The assay was modified from previously reported method.[17] It is performed in triplicate for each inhibitor, in a final reaction volume of 25 µL. Reaction consisted of FTO (1 µM), 2OG (50 µM), (NH4)2Fe(SO4)2·6H2O (50 µM), L-ascorbate (2 mM), 3-methylthymidine (m3T substrate, 10 µM) in 50 mM HEPES buffer, pH 7.5, and inhibitor at various concentrations (final DMSO concentration not more than 1% v/v of assay mix). The reaction was incubated at 4°C for 1 h, before analysis on a HPLC system. The substrate (m3T) and the demethylated product (thymidine) were separated using a Zorbax C18 column (4.6 mm x 250 mm) with a […]
flow rate of 1 mL/min at room temperature.
The percentage inhibition was estimated based on the peak areas of the 3-methylthymidine substrate and the thymidine product. For IC50 determination, eight different concentrations of […]
the variation in percentage demethylation at different inhibitor concentrations, using nonlinear regression, with normalized dose-response fit on GraphPad Prism 6.0™.
HPLC-based assay for FTO was also performed using an m6A-ssRNA as substrate. The assay was modified from previously reported method.[21] All reaction conditions are as described for the inhibition of m3T demethylation above, except that a 15-mer ssRNA with the sequence 5’-CUUGUCA(m6A)CAGCAGA-3’ (Yale University, W.M. Keck Foundation Biotechnology Resource Laboratory) was used as substrate (10 µM). The reaction was analysed on a bio-inert HPLC system. The m6A-ssRNA substrate and the corresponding demethylated product were separated using a Dionex DNAPac PA200 anion-exchange

Each structure is given as a SMILES string.

T1 sequence (Q9C0B1 whole entry): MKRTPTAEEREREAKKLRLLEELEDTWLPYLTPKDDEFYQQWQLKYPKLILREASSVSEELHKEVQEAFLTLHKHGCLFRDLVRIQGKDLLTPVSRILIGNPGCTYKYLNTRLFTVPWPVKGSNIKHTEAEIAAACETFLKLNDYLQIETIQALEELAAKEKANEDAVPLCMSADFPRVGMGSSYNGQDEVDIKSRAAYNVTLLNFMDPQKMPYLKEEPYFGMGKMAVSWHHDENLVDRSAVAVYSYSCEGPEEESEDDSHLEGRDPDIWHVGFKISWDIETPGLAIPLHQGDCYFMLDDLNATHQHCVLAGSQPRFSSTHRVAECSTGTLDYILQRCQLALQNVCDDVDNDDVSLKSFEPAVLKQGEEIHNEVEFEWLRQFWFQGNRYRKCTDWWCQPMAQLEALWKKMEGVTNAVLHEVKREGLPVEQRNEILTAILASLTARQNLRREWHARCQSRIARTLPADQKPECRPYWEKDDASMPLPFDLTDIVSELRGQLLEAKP

`O=C(O)C=CC(=O)NNC(=O)c1cc(Cc2ccccc2)ccn1` [Compound 22]: the ΔTm at 100 µM in experiment [1] was 3 °C. Further, the IC50 in experiment [2] amounted to 86.8 µM.
On to `O=C(O)/C=C/C(=O)NNC(=O)c1ccccn1` [Compound 23], for which, in experiment [1], the ΔTm at 100 µM stood at 2.7 °C. In addition, the IC50 in experiment [2] came out at 109 µM.
